Results published in publication PMC8187357 (Communications Biology, 2021).
Where “and” joins values, the source holds several entries; their conditions need not be identical. Equal entries are not always repeated.

Columns and labels:
PD-L2 = biological target: T1, PD-L2 (Mus musculus, UniProt Q9WUL5); assay: Rescue of PD-L2 mediated inhibition of proliferation, mouse splenocytes; assay type: cell-based; settings: mean ± S.D.; n=2; read-out: Mouse Splenocyte Proliferation Rescue EC50 PD-L2
T1 construct: purchased R&D Systems 1022-PL-100
Description: For all in vitro assays, test agent stock was prepared in water and diluted further in the assay media to achieve test concentrations. Each experimental condition was carried out in triplicates. Percent rescue for a given test compound concentration was calculated by normalizing individual percent test agent proliferation or IFN-γ release values to percent anti-CD3 and anti-CD28 antibodies stimulated proliferation or IFN-γ release.

VISTA = biological target: T2, VISTA (Homo sapiens, UniProt Q9H7M9); assay: VISTA functional assay (IFN-γ release, human PBMC); assay type: cell-based; settings: for IFNγ Rescue (%): inhibited by VISTA; for IFNγ Rescue (%) / IFN-γ: replicates; for IFN-γ: human PBMCs + anti-CD3/anti-CD28 + VISTA 2.5 µg/mL
T2 construct: purchased R&D systems 126-B7
Description: The ability of CA-170 to rescue VISTA-mediated inhibition of IFN-γ release from anti-CD3/CD28-stimulated human PBMC was used to monitor the effect of CA-170 on VISTA functionality. Briefly, 96-well cell culture plates were pre-coated with recombinant human VISTA (2.5 µg/mL) and anti- human CD3 (2.5 µg/mL) overnight at 4 °C. Anti-human VISTA and isotype control antibodies were either coated along with the VISTA or incubated for 30 min next day before addition of cells. On the next day, plates were incubated with CA-170 for 30 min at different concentrations. Isolated PBMC (0.1 × 10^6 cells/well) and anti-human CD28 antibodies (1 µg/mL) were added to the wells. The culture was further incubated for 72 h at 37 °C with 5% CO2. After 72 h of incubation the cell culture supernatants were collected after brief centrifugation at 200 g x 5 min at 4 °C and processed for human IFN-γ measurement by ELISA following manufacturer’s protocol (R&D Systems; DY-285). Percent rescue of IFN-γ release was calculated by normalizing individual percent test agent IFN-γ release values to percent anti-CD3 and anti-CD28 antibodies stimulated IFN-γ release. EC50 values were derived by plotting transformed data into non-linear fit in sigmoidal dose–response curve using GraphPad Prism software (Version 7).

PD-1:PD-L1 complex = biological target: T3, PD-1:PD-L1 complex (Homo sapiens, UniProt Q9NZQ7); assay: TR-FRET PD-1:PD-L1 complex formation assay; assay type: binding; settings: for Percent inhibition: duplicates
T3 construct: purchased Sino Biologicals (PD-L1); R&D system (PD-1 Fc) 10084-H08H; 1086-PD; host or cells: mammalian cells
Description: The assay was performed using LANCE Ultra TR-FRET binding assay. To determine the half maximal inhibitory concentration (IC50) of tested compounds, they were solubilized in water and measurements were performed on individual dilution series. His-tagged human recombinant PD-L1 protein (Sino Biologicals, Cat#10084-H08H) at 20 nM final concentration was incubated at 25 °C temperature with indicated concentration of test compound for 15 min in a white Lumitec high-binding, 384-well plate (Grenier, Cat #781074). […] LANCE Eu-anti-human IgG from Perkin Elmer, (Cat# AD0212) at 0.5 nM final concentration and Surelight Allophycocyanin-6-His from Perkin Elmer (Cat# AD0059H) at 20 nM final concentration was added to the wells. […] Collected data was background subtracted on the negative control, normalized, and analyzed using non-linear regression analysis to determine the IC50 value by GraphPad Prism Version 8.

[1] = system: BZD (peripheral), BZD (central); assay: CEREP 80 panel binding: Benzodiazepine; settings: 10 µM
Description: (§1) CEREP 80 panel assay was carried out by Eurofins Cerep Panlabs facility at France. A series of binding assays was carried out to understand the off-target toxicity of CA-170. CA-170 was tested at 10 μM test concentration in duplicates. Compound binding was calculated as a % inhibition of the binding of a radioactively labeled ligand specific for each target. In each experiment the respective reference compound was tested concurrently with CA-170, and the data were compared with historical values determined at Eurofins. The experiment was accepted in accordance with Eurofins validation standard operating procedure. The results are expressed as a percent of control specific binding; (measured specific binding / control specific binding) × 100 and as a percent inhibition of control specific binding; 100−(measured specific binding / control specific binding) × 100 obtained in the presence of CA-170. The IC50 values (concentration causing a half-maximal inhibition of control specific binding) and Hill coefficients (nH) were determined by non-linear regression analysis of the competition curves generated with mean replicate values using Hill equation curve fitting.

Galanin GAL1, GAL2 = assay: CEREP 80 panel binding: Galanin; settings: 10 µM
Description: as §1

GABA = assay: CEREP 80 panel binding: GABA; settings: 10 µM
Description: as §1

Endothelin ETA, ETB = assay: CEREP 80 panel binding: Endothelin; settings: 10 µM
Description: as §1

PD-L1 = PD-L1 (Homo sapiens, UniProt Q9NZQ7); assay: Rescue of IFN-γ release inhibited by PD-L1, human PBMC; assay type: cell-based; parameters: purchased R&D systems 156-B7-100; settings: for IFNγ Rescue (%): inhibited by PD-L1; for IFNγ Rescue (%) / IFN-γ: replicates; for IFN-γ: human PBMCs + anti-CD3/anti-CD28 + PD-L1 10 nM
Description: The ability of peptides, peptidomimetics, and small molecules were analyzed for their ability to rescue T-cell proliferation or IFN-γ release from the inhibitory activity of PD-L1 or PD-L2 in a splenocyte/PBMC-based functional assay as per the protocols reported in publication. […] For all in vitro assays, test agent stock was prepared in water and diluted further in the assay media to achieve test concentrations. Each experimental condition was carried out in triplicates. Percent rescue for a given test compound concentration was calculated by normalizing individual percent test agent proliferation or IFN-γ release values to percent anti-CD3 and anti-CD28 antibodies stimulated proliferation or IFN-γ release. EC50 values were derived by plotting transformed data into non-linear fit in sigmoidal dose–response curve using GraphPad Prism software (Version 7).

[2] = human PBMCs stimulated with anti-CD3 and anti-CD28

T3 sequence (Q9NZQ7 19-239 limits assumed, one chain of several): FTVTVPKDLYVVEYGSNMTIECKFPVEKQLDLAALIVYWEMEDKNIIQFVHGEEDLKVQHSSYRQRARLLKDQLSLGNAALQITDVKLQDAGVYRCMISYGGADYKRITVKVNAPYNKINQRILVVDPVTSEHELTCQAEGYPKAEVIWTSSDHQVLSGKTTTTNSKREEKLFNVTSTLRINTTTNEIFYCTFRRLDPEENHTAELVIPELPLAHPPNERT
T2 sequence (Q9H7M9 with tags, fused parts or gaps limits assumed): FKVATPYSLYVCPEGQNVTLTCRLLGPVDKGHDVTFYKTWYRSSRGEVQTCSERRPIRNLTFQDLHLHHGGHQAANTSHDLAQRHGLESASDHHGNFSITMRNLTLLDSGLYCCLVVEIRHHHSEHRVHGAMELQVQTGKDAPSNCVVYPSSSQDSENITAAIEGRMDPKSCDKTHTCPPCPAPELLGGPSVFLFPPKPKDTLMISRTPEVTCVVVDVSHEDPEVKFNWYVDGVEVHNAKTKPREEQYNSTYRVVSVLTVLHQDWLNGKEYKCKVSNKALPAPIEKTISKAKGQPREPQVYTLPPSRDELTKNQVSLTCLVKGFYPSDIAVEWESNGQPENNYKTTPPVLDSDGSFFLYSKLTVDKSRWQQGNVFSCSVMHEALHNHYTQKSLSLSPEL
Sequence of PD-L1 (Q9NZQ7 with tags, fused parts or gaps limits assumed): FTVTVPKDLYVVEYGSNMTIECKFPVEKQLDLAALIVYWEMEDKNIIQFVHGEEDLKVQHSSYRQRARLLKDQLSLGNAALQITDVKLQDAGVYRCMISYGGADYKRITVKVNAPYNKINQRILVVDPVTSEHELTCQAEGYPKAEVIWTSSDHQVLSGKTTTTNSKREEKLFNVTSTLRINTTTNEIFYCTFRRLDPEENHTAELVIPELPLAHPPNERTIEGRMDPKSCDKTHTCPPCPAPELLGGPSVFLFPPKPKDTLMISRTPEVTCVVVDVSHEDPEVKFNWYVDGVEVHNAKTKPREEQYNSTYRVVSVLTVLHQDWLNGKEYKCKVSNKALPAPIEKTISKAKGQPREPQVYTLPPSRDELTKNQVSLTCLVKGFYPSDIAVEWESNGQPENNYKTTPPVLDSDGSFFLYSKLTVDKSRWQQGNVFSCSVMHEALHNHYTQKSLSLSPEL
T1 sequence (Q9WUL5 with tags, fused parts or gaps limits assumed): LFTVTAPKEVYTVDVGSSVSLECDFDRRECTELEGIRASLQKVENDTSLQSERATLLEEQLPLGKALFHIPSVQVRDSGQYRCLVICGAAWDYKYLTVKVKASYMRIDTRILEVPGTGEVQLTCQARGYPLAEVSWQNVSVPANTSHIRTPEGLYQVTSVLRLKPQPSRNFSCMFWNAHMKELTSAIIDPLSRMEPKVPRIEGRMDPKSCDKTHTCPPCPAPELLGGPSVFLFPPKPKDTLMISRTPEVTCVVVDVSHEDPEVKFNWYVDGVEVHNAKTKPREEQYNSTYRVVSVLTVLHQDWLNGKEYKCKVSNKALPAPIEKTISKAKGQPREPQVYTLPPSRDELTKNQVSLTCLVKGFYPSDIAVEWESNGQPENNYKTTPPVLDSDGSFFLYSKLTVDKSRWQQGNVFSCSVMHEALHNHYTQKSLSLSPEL

## C[C@@H](O)[C@H](NC(=O)N[C@@H](CC(N)=O)c1nc([C@@H](N)CO)no1)C(=O)O [CA-170]
PD-L2
  EC50: 40.2 nM
VISTA; 1.95 nM
  IFNγ Rescue (%): -2.58% and 0.00% and 0.36%
VISTA; 3.91 nM
  IFNγ Rescue (%): -0.86% and 0.32% and 1.09%
VISTA; 7.81 nM
  IFNγ Rescue (%): 5.58% and 4.87% and 6.18%
VISTA; 15.63 nM
  IFNγ Rescue (%): 21.46% and 16.88% and 19.64%
VISTA; 31.25 nM
  IFN-γ: 1018 pg/mL and 1268 pg/mL and 1298 pg/mL
  IFNγ Rescue (%): 36.91% and 37.66% and 42.55%
VISTA; 62.50 nM
  IFNγ Rescue (%): 48.07% and 36.69% and 46.91%
VISTA; 250.00 nM
  IFNγ Rescue (%): 107.73% and 72.73% and 91.64%
VISTA; 500 nM
  IFN-γ: 2498 pg/mL and 2438 pg/mL and 2828 pg/mL
VISTA; 500.00 nM
  IFNγ Rescue (%): 100.43% and 75.65% and 98.18%
VISTA; [2]
  rescue of IFNγ release inhibited by recombinant VISTA (in words): rescued IFNγ release
VISTA; mean ± S.D., n=4, read-out: Human PBMC IFN-γ Rescue EC50 VISTA
  EC50: 82.9 nM
PD-1:PD-L1 complex; 1e-7 M
  Percent inhibition: 6.182% and -0.9776%
PD-1:PD-L1 complex; 1e-6 M
  Percent inhibition: -12.4686% and -2.961%
PD-1:PD-L1 complex; 1e-5 M
  Percent inhibition: -7.3407% and -7.039%
PD-1:PD-L1 complex; 0.0001 M
  Percent inhibition: -7.475% and -8.751%
PD-1:PD-L1 complex; tested up to 100 μM
  prevention of PD-1:PD-L1 complex formation (in words): did not lead to prevention of complex formation
[1]
  % Inhibition of Control Specific Binding: ≤ 5%
Galanin GAL1, GAL2
  % Inhibition of Control Specific Binding: ≤ 12%
GABA
  % Inhibition of Control Specific Binding: 11%
Endothelin ETA, ETB
  % Inhibition of Control Specific Binding: ≤ 9%
PD-L1; 1.95 nM
  IFNγ Rescue (%): -2.66% and -2.30% and -1.54%
PD-L1; 3.91 nM
  IFNγ Rescue (%): -2.42% and -2.56% and -1.54%
PD-L1; 15.63 nM
  IFNγ Rescue (%): 20.10% and 20.46% and 27.08%
PD-L1; 31.25 nM
  IFN-γ: 256.5 pg/mL and 264 pg/mL and 296.5 pg/mL
  IFNγ Rescue (%): 21.31% and 22.51% and 31.08%
PD-L1; 62.50 nM
  IFNγ Rescue (%): 42.13% and 43.48% and 57.23%
PD-L1; 250.00 nM
  IFNγ Rescue (%): 76.76% and 83.89% and 104.62%
PD-L1; 500 nM
  IFN-γ: 876.5 pg/mL and 939 pg/mL and 906.5 pg/mL
PD-L1; 500.00 nM
  IFNγ Rescue (%): 81.36% and 91.56% and 106.15%
PD-L1; [2]
  rescue of IFNγ release inhibited by recombinant PD-L1 (in words): rescued IFNγ release
PD-L1; mean ± S.D., n=3
  EC50: 66.1 nM
